Columns and labels:
[1] = Relative Cmax ratio of Atazanavir in Sprague-Dawley rat at 1 ml/kg,iv measured upto 24 hrs by UPLC-MS/MS analysis; format: ADME; conditions: in vivo
[2] = Half life in Sprague-Dawley rat at 1 ml/kg,iv measured upto 24 hrs by UPLC-MS/MS analysis; format: ADME; conditions: in vivo
[3] = Aqueous stability of the compound in phosphate buffer at pH 6.5 assessed as compound half life measured after 24 hrs by UPLC analysis; format: physicochemical; conditions: buffer, pH 6.5, 24 h, 24 h
[4] = Relative AUC ratio of Atazanavir in Sprague-Dawley rat at 25 ml/kg,po measured upto 24 hrs by UPLC-MS/MS analysis; format: ADME; conditions: in vivo
[5] = Relative Cmax ratio of Atazanavir in Sprague-Dawley rat at 25 ml/kg,po measured upto 24 hrs by UPLC-MS/MS analysis; format: ADME; conditions: in vivo
[6] = Ratio of AUC of Atazanavir in Sprague-Dawley rat at 25 ml/kg,po measured upto 24 hrs by UPLC-MS/MS analysis; format: ADME; conditions: in vivo
[7] = Fold ratio of total AUC of Atazanavir in Sprague-Dawley rat at 3 ml/kg,po measured upto 24 hrs by UPLC-MS/MS analysis; format: ADME; conditions: in vivo
[8] = AUClast in Sprague-Dawley rat at 3 ml/kg,po measured upto 24 hrs by UPLC-MS/MS analysis; format: ADME; design: time < 24 hrs, dose 3 ml/kg, route po; conditions: in vivo
[9] = Relative Cmax ratio of Atazanavir in Sprague-Dawley rat at 3 ml/kg,po measured upto 24 hrs by UPLC-MS/MS analysis; format: ADME; conditions: in vivo
[10] = Fold ratio of total AUC of Atazanavir in Sprague-Dawley rat at 25 ml/kg,po measured upto 24 hrs by UPLC-MS/MS analysis; format: ADME; conditions: in vivo
[11] = molecular target: T1, UDP-glucuronosyltransferase 1A1 (Homo sapiens, UniProt P22309); experiment: Inhibition of human recombinant UGT1A1 using bilirubin as substrate incubated for 40 mins by LC-MS/MS analysis
T1 sequence (P22309 whole entry): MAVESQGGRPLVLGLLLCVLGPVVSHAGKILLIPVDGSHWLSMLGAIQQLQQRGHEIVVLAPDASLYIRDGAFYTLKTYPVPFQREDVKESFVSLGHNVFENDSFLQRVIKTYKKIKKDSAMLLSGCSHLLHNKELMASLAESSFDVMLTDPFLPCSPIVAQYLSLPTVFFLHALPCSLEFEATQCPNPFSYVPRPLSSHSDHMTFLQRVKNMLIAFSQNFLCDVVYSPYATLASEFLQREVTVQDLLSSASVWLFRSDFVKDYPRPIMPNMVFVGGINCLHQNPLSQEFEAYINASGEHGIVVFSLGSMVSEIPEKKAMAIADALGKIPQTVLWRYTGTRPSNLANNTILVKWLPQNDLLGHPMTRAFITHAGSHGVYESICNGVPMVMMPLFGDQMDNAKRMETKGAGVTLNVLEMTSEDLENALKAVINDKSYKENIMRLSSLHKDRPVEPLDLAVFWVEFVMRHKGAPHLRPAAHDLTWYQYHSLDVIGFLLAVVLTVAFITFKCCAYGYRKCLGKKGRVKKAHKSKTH

[12] = Tmax in Sprague-Dawley rat at 25 ml/kg,po measured upto 24 hrs by UPLC-MS/MS analysis; format: ADME; conditions: in vivo
[13] = Cmax in Sprague-Dawley rat at 3 ml/kg,po measured upto 24 hrs by UPLC-MS/MS analysis; format: ADME; design: dose 3 ml/kg, time < 24 hrs, route po; conditions: in vivo
[14] = Ratio of AUC of Atazanavir in Sprague-Dawley rat at 3 ml/kg,po measured upto 24 hrs by UPLC-MS/MS analysis; format: ADME; conditions: in vivo
[15] = Cmax in Sprague-Dawley rat at 25 ml/kg,po measured upto 24 hrs by UPLC-MS/MS analysis; format: ADME; design: time < 24 hrs, dose 25 ml/kg, route po; conditions: in vivo
[16] = Fold ratio of total AUC of Atazanavir in Sprague-Dawley rat at 1 ml/kg,iv measured upto 24 hrs by UPLC-MS/MS analysis; format: ADME; conditions: in vivo
[17] = Tmax in Sprague-Dawley rat at 3 ml/kg,po measured upto 24 hrs by UPLC-MS/MS analysis; format: ADME; conditions: in vivo
[18] = Ratio of Cmax/Cmin of Atazanavir in Sprague-Dawley rat at 25 ml/kg,po measured after 24 hrs by UPLC-MS/MS analysis; format: ADME; conditions: in vivo
[19] = Aqueous stability of the compound in acetate buffer at pH 4 assessed as compound half life measured after 24 hrs by UPLC analysis; format: physicochemical; conditions: buffer, pH 4, 24 h, 24 h
[20] = Aqueous solubility of compound at pH 4 by UPLC analysis; format: physicochemical; conditions: buffer
[21] = molecular target: Voltage-gated inwardly rectifying potassium channel KCNH2 (Homo sapiens, UniProt Q12809); experiment: Inhibition of human ERG by patch-clamp assay; format: toxicity
[22] = AUClast in Sprague-Dawley rat at 25 ml/kg,po measured upto 24 hrs by UPLC-MS/MS analysis; format: ADME; design: time < 24 hrs, dose 25 ml/kg, route po; conditions: in vivo
[23] = Cmax in Sprague-Dawley rat at 1 ml/kg,iv measured upto 24 hrs by UPLC-MS/MS analysis; format: ADME; design: dose 1 ml/kg, time < 24 hrs, route iv; conditions: in vivo
[24] = Clearance in Sprague-Dawley rat at 1 ml/kg,iv measured upto 24 hrs by UPLC-MS/MS analysis; format: ADME; conditions: in vivo
[25] = Ratio of AUC of Atazanavir in Sprague-Dawley rat at 1 ml/kg,iv measured upto 24 hrs by UPLC-MS/MS analysis; format: ADME; conditions: in vivo
[26] = Ratio of Cmax/Cmin of Atazanavir in Sprague-Dawley rat at 1 ml/kg,iv measured after 24 hrs by UPLC-MS/MS analysis; format: ADME; conditions: in vivo
[27] = Volume of distribution at steady state in Sprague-Dawley rat at 1 ml/kg,iv measured upto 24 hrs by UPLC-MS/MS analysis; format: ADME; conditions: in vivo, read-out: Vdss
[28] = Aqueous solubility of compound at pH 1 by UPLC analysis; format: physicochemical; conditions: buffer
[29] = Relative AUC ratio of Atazanavir in Sprague-Dawley rat at 3 ml/kg,po measured upto 24 hrs by UPLC-MS/MS analysis; format: ADME; conditions: in vivo
[30] = Ratio of Cmax/Cmin of Atazanavir in Sprague-Dawley rat at 3 ml/kg,po measured after 24 hrs by UPLC-MS/MS analysis; format: ADME; conditions: in vivo
[31] = AUClast in Sprague-Dawley rat at 1 ml/kg,iv measured upto 24 hrs by UPLC-MS/MS analysis; format: ADME; design: dose 1 ml/kg, time < 24 hrs, route iv; conditions: in vivo
[32] = Relative AUC ratio of Atazanavir in Sprague-Dawley rat at 1 ml/kg,iv measured upto 24 hrs by UPLC-MS/MS analysis; format: ADME; conditions: in vivo
[33] = molecular target: T1, UDP-glucuronosyltransferase 1A1; experiment: Inhibition of UGT1A1 in human liver microsomes using beta-estradiol as substrate incubated for 40 mins by LC-MS/MS analysis; design: species or system Microsome
[34] = Relative AUC ratio of Atazanavir in Sprague-Dawley rat at 30 ml/kg,po measured upto 24 hrs by UPLC-MS/MS analysis; format: ADME; conditions: in vivo
[35] = Ratio of Cmax/Cmin of Atazanavir in Sprague-Dawley rat at 30 ml/kg,po measured after 24 hrs by UPLC-MS/MS analysis; format: ADME; conditions: in vivo
[36] = Cmax in Sprague-Dawley rat at 30 ml/kg,po measured upto 24 hrs by UPLC-MS/MS analysis; format: ADME; design: time < 24 hrs, dose 30 ml/kg, route po; conditions: in vivo
[37] = Ratio of AUC of Atazanavir in Sprague-Dawley rat at 30 ml/kg,po measured upto 24 hrs by UPLC-MS/MS analysis; format: ADME; conditions: in vivo
[38] = AUClast in Sprague-Dawley rat at 30 ml/kg,po measured upto 24 hrs by UPLC-MS/MS analysis; format: ADME; design: time < 24 hrs, dose 30 ml/kg, route po; conditions: in vivo
[39] = Relative Cmax ratio of Atazanavir in Sprague-Dawley rat at 30 ml/kg,po measured upto 24 hrs by UPLC-MS/MS analysis; format: ADME; conditions: in vivo
[40] = Tmax in Sprague-Dawley rat at 30 ml/kg,po measured upto 24 hrs by UPLC-MS/MS analysis; format: ADME; conditions: in vivo
[41] = Fold ratio of total AUC of Atazanavir in Sprague-Dawley rat at 30 ml/kg,po measured upto 24 hrs by UPLC-MS/MS analysis; format: ADME; conditions: in vivo

Sequence of Voltage-gated inwardly rectifying potassium channel KCNH2 (Q12809 whole entry): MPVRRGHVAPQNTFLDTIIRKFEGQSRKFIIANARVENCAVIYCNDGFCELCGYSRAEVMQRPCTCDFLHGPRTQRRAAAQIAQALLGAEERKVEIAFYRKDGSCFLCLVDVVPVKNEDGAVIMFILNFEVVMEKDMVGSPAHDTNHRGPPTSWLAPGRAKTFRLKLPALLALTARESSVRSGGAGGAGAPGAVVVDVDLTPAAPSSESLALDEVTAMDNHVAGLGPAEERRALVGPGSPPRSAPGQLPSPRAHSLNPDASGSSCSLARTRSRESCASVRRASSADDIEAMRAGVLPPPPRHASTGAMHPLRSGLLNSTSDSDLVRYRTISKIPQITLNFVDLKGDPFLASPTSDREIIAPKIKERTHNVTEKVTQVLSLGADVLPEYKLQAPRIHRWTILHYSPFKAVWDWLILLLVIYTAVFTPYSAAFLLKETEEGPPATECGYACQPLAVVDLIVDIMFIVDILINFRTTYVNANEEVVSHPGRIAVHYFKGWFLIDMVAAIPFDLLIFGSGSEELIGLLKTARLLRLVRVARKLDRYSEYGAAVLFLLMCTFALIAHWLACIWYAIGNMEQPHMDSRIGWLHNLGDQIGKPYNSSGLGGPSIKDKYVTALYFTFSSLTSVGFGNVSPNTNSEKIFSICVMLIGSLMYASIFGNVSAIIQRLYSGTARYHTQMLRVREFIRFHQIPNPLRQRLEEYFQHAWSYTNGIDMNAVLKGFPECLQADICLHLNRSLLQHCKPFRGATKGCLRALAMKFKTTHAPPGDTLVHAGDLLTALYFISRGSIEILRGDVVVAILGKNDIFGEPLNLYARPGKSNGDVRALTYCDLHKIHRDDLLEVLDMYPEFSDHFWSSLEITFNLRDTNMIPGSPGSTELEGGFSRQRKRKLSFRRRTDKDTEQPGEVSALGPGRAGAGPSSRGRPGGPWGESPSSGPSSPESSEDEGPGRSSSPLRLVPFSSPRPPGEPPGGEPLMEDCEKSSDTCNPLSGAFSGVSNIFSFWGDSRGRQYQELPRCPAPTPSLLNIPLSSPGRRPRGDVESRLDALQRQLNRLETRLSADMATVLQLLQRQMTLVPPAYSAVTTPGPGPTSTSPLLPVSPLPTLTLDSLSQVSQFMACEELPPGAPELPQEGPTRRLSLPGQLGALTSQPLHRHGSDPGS

Ratio [1] | half-life [2] | t1/2 [3] | Ratio [7] | Ratio [9] | Ratio [14] | Ratio [16] | t1/2 [19] | solubility [20] | Cmax [23] | clearance [24] | Ratio [25] | Ratio [26] | Vd [27] | solubility [28] | Ratio [29] | Ratio [30] | AUC(0-t) at 24 h [31] | Ratio [32] | SMILES | also measured
1.01 | 4 h | 15.3 h | 18 | 8.2 | 0.02 | 7.8 | 334.3 h | > 1900 µg/mL | 371 nM | 47 mL/min/kg | 0.08 | 431.7 | 7.7 L/kg | > 1900 µg/mL | 17.7 | 86.9 | 0.356 µM·h | 7.3 | COC(=O)N[C@H](C(=O)N[C@@H](Cc1ccccc1)[C@H](CN(Cc1ccc(-c2ccccn2)cc1)NC(=O)[C@@H](NC(=O)OC)C(C)(C)C)OC(=O)OC(OC(=O)[C@H](N)C(C)C)C(C)C)C(C)(C)C (stereo in doubt; 5j) | Ratio [4]: 1.88; Ratio [5]: 1; Ratio [6]: 0.03; AUClast ([8]; 24 h): 0.12 µM·h; Ratio [10]: 1.94; IC50 [11]: 1000 nM; Tmax [12]: 2.3 h; Cmax ([13]; 24 h): 93 nM; Cmax [15]: 123 nM; Tmax ([17]; po, 24 h): 0.4 h; Ratio [18]: 27.8; IC50 [21]: 8800 nM; AUC(0-t) at 24 h [22]: 1.23 µM·h; IC50 [33]: 2100 nM
0.11 | 7 h | 9.2 h | 111.7 | 1 | 14.4 | 18.8 | 334.3 h | > 1300 µg/mL | 2180 nM | 2 mL/min/kg | 7.31 | 22.8 | 1 L/kg | > 2000 µg/mL | 7.3 | 6.4 | 10.5 µM·h | 2.3 | COC(=O)N[C@H](C(=O)N[C@@H](Cc1ccccc1)[C@H](CN(Cc1ccc(-c2ccccn2)cc1)NC(=O)[C@@H](NC(=O)OC)C(C)(C)C)OC(=O)OC(OC(=O)[C@@H](NC(=O)[C@H](N)C(C)C)C(C)C)C(C)C)C(C)(C)C (stereo in doubt; 6h) | Ratio [34]: 0.29; AUC(0-t) at 24 h ([8]; Sprague-Dawley, 3 ml/kg): 40.1 µM·h; Ratio [35]: 5.8; Cmax ([13]; Sprague-Dawley, 3 ml/kg): 3060 nM; Tmax ([17]; Sprague-Dawley, read-out: Tmax): 3 h; Cmax [36]: 4130 nM; Ratio [37]: 11.46; AUC(0-t) at 24 h [38]: 68.3 µM·h; Ratio [39]: 0.08; Tmax [40]: 3 h; Ratio [41]: 3.56
